Measurements: US20250339547A1, “MET BCL-XL INHIBITOR ANTIBODY-DRUG CONJUGATES AND METHODS OF USE THEREOF” (Novartis AG, priority 2022, published 2025)
pIC50: −log10 of the molar value. Blank lines part the entries; values can stand above or below the molecule they belong to.

Key:
Type in all cases: cell-based
Hs766T = assay: Pancreatic cancer cell line viability, single agent or 1:1 combination (CTG 120h), Example 10
Procedure: (§1) Cell lines were cultured in the media described above at 37° C. in a humidified atmosphere containing 5% CO2. Cells were seeded in 96 well clear bottom plates (96 well clear-bottom, white, Corning reference 3903) and exposed to the mAbs or ADCs as single agents or in 1:1 combination with Paclitaxel, Trametinib or Gemcitabine. When in 1:1 combination, both the combining partner (Paclitaxel, Trametinib or Gemcitabine) and the mAb or ADC were serially diluted (9 concentrations each, triplicates). Effect on cell viability was assessed after 5 days of incubation at 37° C./5% CO2 by quantification of cellular ATP levels using CellTiter-Glo reagent (Promega Ref: G7571) at 75 μL reagent/well. All the conditions were tested in triplicates. Luminescence was quantified on a multipurpose plate reader. IC50s were calculated using standard four-parametric curve fitting. IC50 is defined as the compound concentration at which the CTG signal is reduced to 50% of that measured for the control. Two independent experiments were performed (N1 and N2).

Panc 10.05 = assay: as above; conditions: Homo sapiens, Panc1005, 120 h, Panc 10.05, CTG 120 h
Procedure: as §1

KP-4 = assay: as above; conditions: Homo sapiens, KP-4, 120 h, KP-4, CTG 120 h
Procedure: as §1

BxPC-3 = assay: as above; conditions: Homo sapiens, BXPC-3, 120 h, BxPC-3, CTG 120 h
Procedure: as §1

AsPC-1 = assay: as above; conditions: Homo sapiens, ASPC1, 120 h, AsPC-1, CTG 120 h
Procedure: as §1

[1] = tested on: HCC78 lung cancer cell line; assay: HCC78 viability, single agent or 1:1 combination with Paclitaxel (CTG 120h), Example 8; conditions: for effect on the viability: HCC-78, single agents, FIG. 3
Procedure: as §1, with “HCC78 lung cancer cell line was” for “Cell lines were”, “Paclitaxel.” for “Paclitaxel, Trametinib or Gemcitabine.”, “Paclitaxel” for “the combining partner (Paclitaxel, Trametinib or Gemcitabine)”

HCC78 = assay: Lung cancer cell line viability, single agent or 1:1 combination (CTG 120h), Example 7; conditions: Homo sapiens, HCC78, 120 h, HCC78, CTG 120 h
Procedure: (§2) Cell lines were cultured in the media described above at 37° C. in a humidified atmosphere containing 5% CO2. Cells were seeded in 96 well clear bottom plates (96 well clear-bottom, white, Corning reference 3903) and exposed to the mAbs, mAbs mixture, ADCs or ADCs mixture as single agents or in 1:1 combination with Paclitaxel. When in 1:1 combination, both the combining partner (Paclitaxel) and the mAb, mAb mixture, ADC or ADC mixture were serially diluted (9 concentrations each, triplicates). Effect on cell viability was assessed after 5 days of incubation at 37° C./5% CO2 by quantification of cellular ATP levels using CellTiter-Glo reagent (Promega Ref: G7571) at 75 μL reagent/well. All the conditions were tested in triplicates. Luminescence was quantified on a multipurpose plate reader. IC50s were calculated using standard four-parametric curve fitting. IC50 is defined as the compound concentration at which the CTG signal is reduced to 50% of that measured for the control. Two independent experiments were performed (N1 and N2).

HCC366 = assay: as above; conditions: HCC366, 120 h, HCC366, CTG 120 h
Procedure: as §2

NCI-H1975 = assay: as above; conditions: Homo sapiens, NCI-H1975, 120 h, NCI-H1975, CTG 120 h
Procedure: as §2

HCC4006 = assay: as above; conditions: Homo sapiens, HCC4006, 120 h, HCC4006, CTG 120 h
Procedure: as §2

CALU1 = assay: as above; conditions: Homo sapiens, Calu-1, 120 h, CALU1, CTG 120 h
Procedure: as §2

LU65 = assay: as above; conditions: Homo sapiens, Lu-65, 120 h, LU65, CTG 120 h
Procedure: as §2

HCC827 = assay: as above; conditions: Homo sapiens, HCC827, 120 h, HCC827, CTG 120 h
Procedure: as §2

NCI-H1838 = assay: as above; conditions: Homo sapiens, NCI-H1838, 120 h, NCI-H1838, CTG 120 h
Procedure: as §2

NCI-H441 = assay: as above; conditions: Homo sapiens, NCI-H441, 120 h, NCI-H441, CTG 120 h
Procedure: as §2

- pIC50 (Hs766T; mean): 5.79
- pIC50 (Hs766T; n1): 5.72
- pIC50 (Hs766T; n2): 5.86
- pIC50 (Panc 10.05; mean): 7.13
- pIC50 (Panc 10.05; n1): 7.21
- pIC50 (Panc 10.05; n2): 7.07
- pIC50 (KP-4; mean): 4.77
- pIC50 (KP-4; n1): 4.83
- pIC50 (KP-4; n2): 4.72
- pIC50 (BxPC-3; mean): 4.66
- pIC50 (BxPC-3; n1): 4.68
- pIC50 (BxPC-3; n2): 4.64
- pIC50 (AsPC-1; mean): 6.61
- pIC50 (AsPC-1; n1): 6.43
- pIC50 (AsPC-1; n2): 6.92
- pIC50 (HCC78; Mean): 5.64
- pIC50 (HCC78; n1): 5.49
- pIC50 (HCC78; n2): 5.88
- pIC50 (HCC366; Mean): 7.53
- pIC50 (HCC366; n1): 7.83
- pIC50 (HCC366; n2): 7.36
- pIC50 (NCI-H1975; Mean): 5.04
- pIC50 (NCI-H1975; n1): 5.04
- pIC50 (NCI-H1975; n2): < 5.00
- pIC50 (HCC4006; Mean): 5.13
- pIC50 (HCC4006; n1): 5.13
- pIC50 (HCC4006; n2): < 5.00
- pIC50 (CALU1; Mean): 7.84
- pIC50 (CALU1; n1): 8.75
- pIC50 (CALU1; n2): 7.84
- pIC50 (LU65; Mean): < 5.00
- pIC50 (LU65; n1): 5.25
- pIC50 (LU65; n2): < 5.00
- pIC50 (HCC827; Mean): 6.97
- pIC50 (HCC827; n1): 7.24
- pIC50 (HCC827; n2): 6.80
- pIC50 (NCI-H1838; Mean): 7.47
- pIC50 (NCI-H1838; n1): 7.38
- pIC50 (NCI-H1838; n2): 7.57
- pIC50 (NCI-H441; Mean): 5.99
- pIC50 (NCI-H441; n1): 6.00
- pIC50 (NCI-H441; n2): 5.99
Compound: Cc1c(Nc2nc3ccccc3s2)nnc2c1CCCN2c1ccc(-c2cnn(C[C@]34C[C@]5(C)C[C@](C)(C3)C[C@@](OCCNCCCO)(C5)C4)c2C)c(C(=O)O)n1 [P25, 6-[3-(1,3-benzothiazol-2-ylamino)-4-methyl-6,7-dihydro-5H-pyrido[2,3-c]pyridazin-8-yl]-3-[1-[[3-[2-(3-hydroxypropylamino)ethoxy]-5,7-dimethyl-1-adamantyl]methyl]-5-methyl-pyrazol-4-yl]pyridine-2-carboxylic acid]
- effect on the viability [1]: induced a dose dependent decrease in the viability

- pIC50 (Hs766T; mean): < 4.52
- pIC50 (Hs766T; n2): < 4.52
- pIC50 (Panc 10.05; mean): 8.10
- pIC50 (Panc 10.05; n1): 8.25
- pIC50 (Panc 10.05; n2): 7.99
- pIC50 (KP-4; mean): 8.63
- pIC50 (KP-4; n1): 9.33
- pIC50 (KP-4; n2): 8.38
- pIC50 (BxPC-3; mean): 9.03
- pIC50 (BxPC-3; n1): 9.22
- pIC50 (BxPC-3; n2): 8.90
- pIC50 (AsPC-1; mean): 7.99
- pIC50 (AsPC-1; n1): 7.91
- pIC50 (AsPC-1; n2): 8.09
- pIC50 (HCC78; Mean): 8.47
- pIC50 (HCC78; n1): 8.60
- pIC50 (HCC78; n2): 8.37
- pIC50 (HCC366; Mean): 8.13
- pIC50 (HCC366; n1): 8.40
- pIC50 (HCC366; n2): 7.96
- pIC50 (NCI-H1975; Mean): 8.60
- pIC50 (NCI-H1975; n1): 8.48
- pIC50 (NCI-H1975; n2): 8.76
- pIC50 (HCC4006; Mean): 8.33
- pIC50 (HCC4006; n1): 8.23
- pIC50 (HCC4006; n2): 8.47
- pIC50 (CALU1; Mean): 7.59
- pIC50 (CALU1; n1): 7.86
- pIC50 (CALU1; n2): 7.43
- pIC50 (LU65; Mean): 7.53
- pIC50 (LU65; n1): 7.49
- pIC50 (LU65; n2): 7.57
- pIC50 (HCC827; Mean): 8.28
- pIC50 (HCC827; n1): 8.39
- pIC50 (HCC827; n2): 8.19
- pIC50 (NCI-H1838; Mean): < 6.52
- pIC50 (NCI-H1838; n1): < 6.52
- pIC50 (NCI-H1838; n2): < 6.52
- pIC50 (NCI-H441; Mean): 8.19
- pIC50 (NCI-H441; n1): 8.04
- pIC50 (NCI-H441; n2): 8.43
Compound: CC(=O)O[C@H]1C(=O)[C@@]2(C)[C@H]([C@H](OC(=O)c3ccccc3)[C@]3(O)C[C@H](OC(=O)[C@H](O)[C@@H](NC(=O)c4ccccc4)c4ccccc4)C(C)=C1C3(C)C)[C@]1(OC(C)=O)CO[C@@H]1C[C@@H]2O [Paclitaxel, paclitaxel]
- Maximal effect on the viability (viability decrease) ([1]; HCC-78, FIG. 3): 80%
- effect on the viability [1]: induced a dose dependent decrease in the viability
